The text below walks through data of a melting point compilation (Tetko et al.; mined from patent text by program, amines drawn as free bases though some values may be those of a salt).

The melting point is the temperature, or range, at which the solid turns liquid.

`CNC(=O)c1ccccc1Nc1nc(Nc2cc3c(cc2OC)CCN(CC(=O)N(C)C)CC3)ncc1Br` displayed a melting point of 225 °C.
As for `CN(Cc1ccc(NC(=O)C2=Cc3cc(-c4ccc(Cl)c(Cl)c4)ccc3S(=O)(=O)CC2)cc1)C1CCOCC1`, the figure is 235 to 237 °C; as for `CC(C)c1nn(-c2ccccc2)c(-c2ccc(F)cc2)c1CC[C@H]1C[C@H](O)CC(=O)O1` (relative stereo), 157 to 159 °C; as for `Oc1ccccc1OCC1CCN(CC(O)COc2cccc3[nH]ccc23)CC1` (configuration not stated), 119 to 121 °C.
Under `CCc1ccc2nc(C)[nH]c(=O)c2c1` stands 165 to 185 °C.
`CCCc1c(OCCCSc2nnc(NC(=O)C(=O)OCC)s2)ccc(C(C)=O)c1O`: the melting point is 146 to 147 °C.
Under `CC(C)[C@H](NC(=O)OCc1ccccn1)C(=O)N[C@@H](Cc1ccccc1)[C@@H](O)C[C@H](Cc1ccccc1)NC(=O)OCc1cncs1` stands 176 to 177 °C.
Under `Cn1nc2ccc(NCCCN3CCC(OC(c4ccccc4)c4ccccc4)CC3)nn2c1=O` stands 171 to 172 °C; under `CC(C)(C)OC(=O)N[C@@H](Cc1ccccc1)[C@@H](O)C[C@@H](Cc1ccccc1)c1ncn[nH]1`, 187 to 188 °C; under `CC(C)(CNc1ccc(C2=NNC(=O)CC2)cc1)NCC(O)COc1ccccc1` (configuration not stated), 147 to 148 °C.
As for `CCCCC(C)(C)C=CC(OC(C)=O)C1C(C)CC2OC(=O)CC21` (configuration not stated), the figure is 83 to 83.5 °C; as for `C=CCn1ccc2cc(NC(=O)c3nc4ccc(Cl)cc4n3Cc3ccccc3)ccc21`, 154 to 155 °C.
`Fc1ccc(Nc2ncnc3cnc(NCc4ccccn4)nc23)cc1Cl` displayed a melting point of 220 to 222 °C.
Under `CCCCCCCNC(=O)Nc1ccccc1C(=O)N1CCN(C(c2ccccc2)c2ccccc2)CC1` stands 125 to 127 °C; under `Cc1cccc(C)c1NC(=O)c1cc(CO)on1`, 95 °C.
Regarding `CC(C)NC[C@H](O)COc1ccc(Cc2nc(Br)c[nH]2)cc1`, the melting point fell in the range of 125 to 127 °C.
In turn, `Cc1cc2nncn2nc1-c1ccccc1` yielded a melting point of 188 to 190 °C.
`O=C(NCC1CN(c2ccc(N3CCOCC3=O)cc2)C(=O)O1)c1ccc(Cl)s1` (configuration not stated): the melting point is 227 °C.
As for `CCCCCC1CCC2c3ccc(OCC)c(F)c3OC2C1` (configuration not stated), the melting point is 118 °C.
Under `CC1(C)CCC(C)(C)c2cc(-c3cc(-c4ccc(C(N)=O)cc4-c4ccc(O)cc4)ccc3-c3ccccc3)ccc21` stands 231 °C; under `CN1CCN(c2nc(-c3ccccc3Cl)c3cc([N+](=O)[O-])ccc3n2)CC1`, 204 °C; under `S=c1cc(N2CCOCC2)ss1`, 60 °C.
Compound `COCCNc1nccc(-c2ccnc(Nc3cccc(Cl)c3)n2)c1Cl` gave a melting point of 172 °C.
Take `CC(=O)n1nc(S(=O)(=O)Cl)nc1N`: the melting point is 166 to 168 °C.
As for `O=S(=O)(c1ccccc1)n1c(Sc2cc(Cl)cc(Cl)c2)cc2cc(Cl)ccc21`, the figure is 121 to 122 °C; as for `CC(=O)NC(C)Cc1ccc(CCC(=O)O)cc1` (configuration not stated), 93 to 96 °C.
For the compound `CC(C)(C)OC(=O)N1CC[C@H](O)[C@H]1C(=O)O`, the melting point lay in the range of 156 to 157 °C.
As for `CC(C)(C)c1cc(CCc2n[nH]c(=S)o2)cc(C(C)(C)C)c1O`, the figure is 164 to 166 °C; as for `CNC(=O)c1cnn(-c2ccc(Cl)cc2Cl)c1C#N`, 182 to 183 °C.
On to `CCCCCC[C@@H]1C(=O)O[C@H]1OC(=O)N(CCCCC)c1ccccc1Oc1ccccc1` (relative stereo), for which the melting point is 63.1 to 66.3 °C.
Compound `CC(=O)OCC1COc2c(C(=O)O)cc(Cl)c(Cl)c2O1` (configuration not stated) came in with a melting point of 144 to 145 °C.
As for `COC(c1ccc(Cl)cc1)(c1cc2c3c(c1)c(-c1cccc(Cl)c1)cc(=O)n3CCC2)c1nncn1C` (configuration not stated), the figure is 132 °C; as for `CS(=O)Cc1ccc2oc([N+](=O)[O-])c(-c3ccccc3)c2c1` (configuration not stated), 162 to 165 °C.
As for `c1ccc(COc2ccc(-c3nc(COc4ccc(CCCCn5ccnc5)cc4)co3)cc2)cc1`, the figure is 118 to 120 °C; as for `CN1CCN(CCCCCCCCCOc2ccc3oc(-c4ccccc4)cc(=O)c3c2)CC1`, 77 to 80 °C; as for `COc1ccc2[nH]cc(-c3cc4nccnc4[nH]3)c2c1`, 268 to 271 °C.
As to `CSc1ccc(CCCOCCCCCCNCC(O)c2ccc3c(n2)COC(c2ccccc2)O3)cc1` (configuration not stated), the melting point is 70 °C.
Under `COc1cc(N)c(Cl)cc1C(=O)NCCN1CCC2(CC1)C(=O)NCN2c1ccccc1` stands 247 °C.
Take `COc1ccc2c(c1)C(c1ccc(O)cc1)c1c-2ccc2cc(OC)ccc12` (configuration not stated): the melting point lay in the range of 196 to 199 °C.
With `Cc1c(C(C)(C)C)cc(C(C)C)c(O)c1CO`, the melting point lay in the range of 143 to 146 °C.
`CC(C)(C)OC(=O)N1CCC[C@H]1c1nc2c(C(F)(F)F)cccc2c(O)c1C(=O)Nc1nccs1` returned a melting point of 215 °C.
`CCOC(=O)C1=C(C)N(C2CC2)C(C)=C(C(=O)OC)C1c1ccc(C(F)(F)F)cc1` (configuration not stated) displayed a melting point of 110 °C.
Under `Cc1c(C)c2c(c(C)c1NC(=O)CC(C)(C)C)C(c1ccc(C3CCCCC3)cc1)CO2` (configuration not stated) stands 146 to 148 °C.
Under `CC(C#Cc1ccc(Oc2ccc(C(C)(C)C)cc2)o1)N(O)C(N)=O` (configuration not stated) stands 144 to 145 °C; under `CCN1C(=O)C(C)(C)C(=O)Nc2cc(C#N)ccc21`, 215 to 218 °C.
As for `COc1cc(N)c(Cl)cc1C(=O)OCC12CCCN(CCC1)C2`, the figure is 152 to 154 °C; as for `CCOCCOc1ccccc1COc1ccc2c(c1)C=C(C(=O)O)CCS2(=O)=O`, 134 to 136 °C; as for `COc1ccc(C(=O)Nc2ccccc2)cc1NC(=NC#N)Nc1cc(Cl)cc(Cl)c1`, 225 to 227 °C.
For the compound `Cc1ccc2c(Sc3ccc(Cl)cc3)c(C(=O)O)[nH]c2c1`, the melting point was 228 to 229 °C.
In turn, `COc1ccc(C(F)(F)F)cc1N1CCN(CCCNC(=O)c2cccc3c(=O)c(C)c(-c4ccccc4)oc23)CC1` displayed a melting point of 173 to 176 °C.
Take `CCOC(=O)c1c(O)c2cc(Cl)cnc2n(Cc2ccc(OC)cc2)c1=O`: the melting point was 185 to 187 °C.
As for `N#Cc1c[nH]c(C(N)=O)c1`, the figure is 253 to 256 °C.
Under `CCOC(=O)c1c(Cc2ccccc2)nc2c(C(F)(F)F)cccc2c1O` stands 99 °C.
Under `Cc1cc2c(cc1-c1ccncc1)C(=O)C(=O)N2` stands 292 to 294 °C.
Consider `CC(=O)N(C)c1cccc(OC(CCc2ccc(Cl)cc2)Cn2ccnc2)c1` (configuration not stated), for which the melting point lay in the range of 229 to 231 °C.
As for `Clc1ccc(Sc2cc(NCCN3CCOCC3)nc(-c3ccc(Cl)cc3)n2)cc1`, the figure is 159 to 161 °C; as for `COc1cc2c(cc1OS(N)(=O)=O)CCN(Cc1cccc(NS(C)(=O)=O)c1)C2`, 151 to 152 °C.
With `COc1ccccc1CNc1ccc2cc(Nc3ncccc3C)ccc2n1`, the melting point came to 163 °C.
Under `COC(=O)c1cc(C(=O)OC)cc(P(=O)(c2ccccc2)c2ccccc2)c1` stands 170 to 171 °C.
`COc1c(C)c(C=O)c(OC)c2ccccc12` returned a melting point of 95 to 96 °C.
As for `COC(=O)CCCc1cc2nc(C(F)(F)F)ccc2n1S(=O)(=O)c1ccccc1`, the figure is 95 °C.
The compound `CC(C)CN1CCn2c1nc1[nH]cnc1c2=O` showed a melting point of 233 to 237 °C.
Regarding `COc1ccc(CNc2nc(N)nc3c2ncn3C2CC(F)C(CO)O2)cc1` (configuration not stated), the melting point lay in the range of 194 to 195 °C.
Under `CC(C)C(=S)Nc1ccc([N+](=O)[O-])c(C(F)(F)F)c1` stands 74 to 76 °C.
For `CCCC(=O)c1cnc2c(OC)cccc2c1Nc1ccccc1COC`, the melting point was 128 to 130 °C.
Under `Cc1ccc(-c2c(-c3ccc(S(C)(=O)=O)cc3)cnn(-c3ccc(F)c(F)c3)c2=O)cc1` stands 190 to 192 °C.
As for `Cn1nnc2cc3c(cc2c1=O)OC1CCCN1C3=O` (configuration not stated), the figure is 249 to 251 °C.
As for `NNc1nc2ccc(OC(F)(F)F)cc2s1`, the figure is 208 °C; as for `CCN(CC)C(=O)c1ccoc1-c1ccc(C=O)cc1`, 64 to 66 °C.
Regarding `Cn1c(COc2ccc(CC3SC(=O)NC3=O)cc2)nc2ccc(Oc3ccc(NC(=O)C4CCCCC4)cc3)cc21` (configuration not stated), the melting point was in the range of 182 to 184 °C.
In turn, `O=[N+]([O-])c1ccc(CO)c([N+](=O)[O-])c1` registered a melting point of 105 to 110 °C.
As for `COc1cc(C#N)cc(Br)c1O`, the figure is 144 to 145 °C.
As for `O=C(OCc1ccccc1)C1CC(=C2NC(=O)N(c3ccccc3)C2=O)c2ccc(Cl)cc2N1` (configuration not stated), the figure is greater than 220 °C; as for `CC(=O)OCC1OC(n2cc(S)c(=O)[nH]c2=O)CC1(O)C(C)=O` (configuration not stated), 159 to 163 °C.
As for `CSc1ccc2sc3cc(F)ccc3c(=O)c2c1`, the figure is 135 to 138 °C; as for `O=CNc1ccc(-c2c[nH]cn2)cc1`, 108 to 109 °C; as for `CC1(C)CCc2cc(O)c(C=O)cc21`, 40 to 40.5 °C.
For `Nc1c(-c2ccc(-c3nnco3)cc2)nnn1-c1ccc(C(F)(F)F)cc1F`, the melting point lay in the range of 185 to 186 °C.
As for `CC(C)(C)NS(=O)(=O)c1ccc(N)cc1`, the figure is 127 °C.
`N[C@@H](C/C(=C\C1CCCCC1)C(=O)O)C(=O)O` registered a melting point of 205 °C.
In turn, `COc1cccc(Nc2ccnc(Nc3cc(C)c(OC)c(OC)c3)n2)c1` yielded a melting point of 66 to 68 °C.
As for `Cc1cccc(Nn2c(-c3ccccc3)c(C)[nH]c2=S)c1`, the figure is 206 °C; as for `CN(C)CCc1c[nH]c2ccc(C#CCOCc3ccccc3)cc12`, 93 to 95 °C.
Under `O=c1c2c(c3cccnc3n1-c1ccccc1)OCCCC2` stands 180 to 181 °C; under `CCOc1cc(C)cc(C)c1C`, 93 to 95 °C.
For `CC(C)(C)OC(=O)C=Cc1ccc2c(c1)OCO2`, the melting point fell in the range of 82 to 83 °C.
In turn, `CCCCCCCCC(=O)Nc1cc([N+](=O)[O-])ccc1O` displayed a melting point of 140 to 141 °C.
